Measurements reported in US4794125A, “Compounds having an immunizing activity” (CL Pharma AG, priority 1984, dated 1988).

System: delayed-type hypersensitivity
Test: DTH test (delayed-type hypersensitivity in mice), topical sensitization with oxazolone
Format: in vivo
Details: dose 1.0 mg/kg; OF-1 mice; topical sensitization with ethanol oxazolone solution
Protocol: The compounds prepared in accordance with the invention were investigated using the DTH test (delayed-type hypersensitivity in mice) according to Dietrich, F. M. & Hess, R.: Hypersensitivity in mice.
The new compounds (2,6-bis-MAA=2,6-bis-/(methylamino)-acetylamino/-anthraquinone), CS-A=cyclosporin A, were tested in vivo in OF-1 mice by topical sensitization with antigen (ethanol oxazolone solution). The decrease in the inflammatory response versus untreated animals is expressed as % inhibition.

CNCC(=O)Nc1ccc2c(c1)C(=O)c1ccc(NC(=O)CNC)cc1C2=O [2,6-bis-MAA, 2,6-bis-(methylamino)-acetylamino-anthraquinone]
% Inhibition (decrease in the inflammatory response versus untreated animals): 35%
